These results are taken from ChEMBL document CHEMBL4420076, “Amylin and calcitonin receptor agonist” (2017).

Series [1] has as its target T1, Calcitonin receptor (Homo sapiens, UniProt P30988).
T1 sequence (P30988 whole entry): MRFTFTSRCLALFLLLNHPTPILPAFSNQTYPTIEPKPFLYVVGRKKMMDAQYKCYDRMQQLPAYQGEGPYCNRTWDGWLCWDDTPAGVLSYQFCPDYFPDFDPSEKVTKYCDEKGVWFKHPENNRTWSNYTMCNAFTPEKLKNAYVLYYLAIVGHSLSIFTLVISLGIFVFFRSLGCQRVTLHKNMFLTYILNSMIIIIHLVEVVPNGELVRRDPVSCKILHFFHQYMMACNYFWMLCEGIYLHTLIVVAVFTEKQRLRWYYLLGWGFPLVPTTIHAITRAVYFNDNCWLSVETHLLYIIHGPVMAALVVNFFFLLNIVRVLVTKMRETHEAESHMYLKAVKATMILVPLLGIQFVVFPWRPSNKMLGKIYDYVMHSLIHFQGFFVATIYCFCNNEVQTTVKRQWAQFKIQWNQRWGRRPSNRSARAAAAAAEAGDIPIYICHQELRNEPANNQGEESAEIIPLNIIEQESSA
Kind of series: Agonist activity at human calcitonin receptor expressed in BHK570 cells assessed as increase in intracellular cAMP concentration incubated for 3 hrs in absence of albumin by CRE luciferase reporter gene assay. The series is classed as functional, cell-based. (Reporter assays use an easily measured gene product as a stand-in for the process of interest.)

Series [2] addresses T2, Amylin receptor AMY3; CALCR/RAMP3 (Homo sapiens, UniProt O60896+P30988).
T2 sequence (P30988 whole entry): T1 sequence (P30988 whole entry)
T2 sequence (O60896 whole entry): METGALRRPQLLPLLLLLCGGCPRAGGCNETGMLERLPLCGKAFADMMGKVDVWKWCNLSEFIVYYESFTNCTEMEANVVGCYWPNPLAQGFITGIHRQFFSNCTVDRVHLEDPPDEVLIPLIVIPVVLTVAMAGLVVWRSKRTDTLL
Kind of series: Agonist activity at human amylin receptor expressed in BHK570 cells co-expressing RAMP3 assessed as increase in intracellular cAMP concentration incubated for 3 hrs in presence of 10% FBS by CRE luciferase reporter gene assay. The series is classed as functional, cell-based.

In series [3] the target is T1, Calcitonin receptor. Kind of series: Agonist activity at human calcitonin receptor expressed in BHK570 cells assessed as increase in intracellular cAMP concentration incubated for 3 hrs in presence of 10% FBS by CRE luciferase reporter gene assay. The series is classed as functional, cell-based.
Series [4] in a line: Stability in pH 7.5 buffer assessed as lag time for fibril formation at 1 uM by Thioflavin T based fluorescence assay. The conditions noted are these: pH 7.5, 1 µM. The class given is physicochemical.
A short description of series [5]: Stability in pH 7.5 buffer assessed as compound recovery at 1 uM by Thioflavin T based fluorescence assay. The class given is physicochemical. The conditions noted are these: read-out: Drug recovery.
Series [6] can be described thus: Solubility in 100 mM glycylglycine buffer at pH 3.0 incubated for 18 hrs by UPLC analysis. The class given is physicochemical.
Series [7] is described as follows: Solubility in 100 mM glycylglycine buffer at pH 4.0 incubated for 18 hrs by UPLC analysis. The series is classed as physicochemical.
Series [8] is described as follows: Solubility in 100 mM bistrispropane buffer at pH 6.0 incubated for 18 hrs by UPLC analysis. The series is classed as physicochemical.
Series [9] in a line: Solubility in 100 mM glycylglycine buffer at pH 5.0 incubated for 18 hrs by UPLC analysis. The class given is physicochemical.
The nature of series [10]: Solubility in 100 mM bistrispropane buffer at pH 6.5 incubated for 18 hrs by UPLC analysis. The series is classed as physicochemical.
Series [11] can be described thus: Solubility in 100 mM bistrispropane buffer at pH 7.0 incubated for 18 hrs by UPLC analysis. The class given is physicochemical.
The nature of series [12]: Solubility in 100 mM bistrispropane buffer at pH 7.5 incubated for 18 hrs by UPLC analysis. The series is classed as physicochemical.
Series [13] is described as follows: Solubility in 100 mM bistrispropane buffer at pH 8.0 incubated for 18 hrs by UPLC analysis. The class given is physicochemical.
The target in series [14] is T1, Calcitonin receptor. Kind of series: Displacement of [125I]-labeled human calcitonin from human calcitonin receptor expressed in BHK tkts13 cell membranes incubated for 1 hr by scintillation proximity assay.
The target of series [15] is T3, Amylin receptor AMY3; CALCR/RAMP3 (Rattus norvegicus, UniProt P32214+Q9JJ73).
T3 sequence (P32214 whole entry): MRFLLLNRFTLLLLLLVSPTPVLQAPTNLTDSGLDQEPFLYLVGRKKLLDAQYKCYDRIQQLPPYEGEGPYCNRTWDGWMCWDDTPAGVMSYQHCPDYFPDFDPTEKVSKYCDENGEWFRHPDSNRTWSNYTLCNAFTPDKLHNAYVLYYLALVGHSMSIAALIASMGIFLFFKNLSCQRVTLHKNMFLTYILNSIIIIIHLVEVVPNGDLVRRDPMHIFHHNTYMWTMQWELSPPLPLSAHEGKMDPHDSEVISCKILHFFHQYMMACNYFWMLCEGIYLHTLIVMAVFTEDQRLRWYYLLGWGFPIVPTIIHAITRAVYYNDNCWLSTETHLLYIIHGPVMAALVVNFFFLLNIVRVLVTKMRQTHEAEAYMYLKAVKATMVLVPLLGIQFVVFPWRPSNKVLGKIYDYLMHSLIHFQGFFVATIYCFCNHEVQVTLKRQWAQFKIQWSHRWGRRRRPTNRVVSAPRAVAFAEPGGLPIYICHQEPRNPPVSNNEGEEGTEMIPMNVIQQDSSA
T3 sequence (Q9JJ73 whole entry): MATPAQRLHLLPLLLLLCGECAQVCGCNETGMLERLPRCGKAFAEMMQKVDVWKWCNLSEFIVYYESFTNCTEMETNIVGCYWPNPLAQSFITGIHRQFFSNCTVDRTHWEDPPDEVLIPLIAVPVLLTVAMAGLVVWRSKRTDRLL
Kind of series: Displacement of [125I]-labeled rat amylin from rat amylin receptor expressed in BHK tkts13 cell membranes co-expressing RAMP3 incubated for 120 mins by scintillation proximity assay.

The target of series [16] is T2, Amylin receptor AMY3; CALCR/RAMP3. Kind of series: Agonist activity at human amylin receptor expressed in BHK570 cells co-expressing RAMP3 assessed as increase in intracellular cAMP concentration incubated for 3 hrs in absence of albumin by CRE luciferase reporter gene assay. The series is classed as functional, cell-based.

Numbered stars: 1 amine (or outer) side, 2 acyl side, 3 side chain; on linkers, the order of the positions; unused ones are H or OH. Side chains are listed from the residue outwards. Peptide text beside a SMILES is read from it. * marks the point of attachment. C20 diacid = O=C(O)CCCCCCCCCCCCCCCCCCC(=O)*; γGlu = O=C(O)[C@H](CCC(=O)[*:2])N[*:1]; AEEA = NCCOCCOCC(=O)O

The EC50 is the concentration giving half of the maximal effect. What is called solubility is the dissolved amount per volume that the medium holds. Low readings indicate little dissolved substance, high ones much dissolved substance. Usually IC50 stands for the concentration that gives 50% inhibition. As for `CC(C)C[C@H](NC(=O)[C@H](C)NC(=O)[C@H](C)NC(=O)[C@@H](NC(=O)[C@H](CO)NC(=O)[C@H](CC(C)C)NC(=O)[C@H](CCC(=O)O)NC(=O)[C@H](CO)NC(=O)[C@H](C)N)[C@@H](C)O)C(=O)NCC(=O)N[C@@H](CCCNC(=N)N)C(=O)N[C@@H](CC(C)C)C(=O)N[C@@H](CO)C(=O)N[C@@H](C)C(=O)N[C@@H](CCC(=O)O)C(=O)N[C@@H](CC(C)C)C(=O)N[C@@H](Cc1cnc[nH]1)C(=O)N[C@@H](CCCCNC(=O)CC[C@H](NC(=O)CCCCCCCCCCCCCCCCCCC(=O)O)C(=O)O)C(=O)N[C@@H](CC(C)C)C(=O)N[C@@H](C)C(=O)N[C@H](C(=O)N[C@@H](CC(C)C)C(=O)N1CCC[C@H]1C(=O)N[C@@H](CCCNC(=N)N)C(=O)N[C@H](C(=O)N[C@@H](CCC(=O)O)C(=O)N[C@H](C(=O)NCC(=O)N[C@@H](CO)C(=O)NCC(=O)N[C@@H](CO)C(=O)N1CCC[C@H]1C(N)=O)[C@@H](C)O)[C@@H](C)O)[C@@H](C)O` (H-ASELSTAALGRLSAELHK([γGlu-C20 diacid])LATLPRTETGSGSP-NH2), the results for the concentration for a half-maximal effect (EC50) (on Calcitonin receptor [1]; in [2]; on Calcitonin receptor [3]) were 19 pM, 49 pM and 28 pM, respectively. Besides, the Time in [4] was greater than 45 h. Also, the remaining at 1 µM in series [5] was 100%. Further, the solubility at 18 h in series [6], in series [7], in [8], in series [9], in series [10] and in series [11] was no less than 200 µM each time. For the same molecule, the solubility at 18 h in series [12] and in series [13] was no less than 200 µM each time. The IC50 on Calcitonin receptor [14] is 85 pM; in [15], 455 pM.

For the molecule `CC(C)C[C@H](NC(=O)[C@H](C)NC(=O)[C@H](C)NC(=O)[C@@H](NC(=O)[C@H](CO)NC(=O)[C@H](CC(C)C)NC(=O)[C@H](CCC(=O)O)NC(=O)[C@H](CO)NC(=O)[C@H](C)NC(=O)COCCOCCNC(=O)CC[C@H](NC(=O)CCCCCCCCCCCCCCCCCCC(=O)O)C(=O)O)[C@@H](C)O)C(=O)NCC(=O)N[C@@H](CCCNC(=N)N)C(=O)N[C@@H](CC(C)C)C(=O)N[C@@H](CO)C(=O)N[C@@H](C)C(=O)N[C@@H](CCC(=O)O)C(=O)N[C@@H](CC(C)C)C(=O)N[C@@H](Cc1cnc[nH]1)C(=O)N[C@@H](CCC(=O)O)C(=O)N[C@@H](CC(C)C)C(=O)N[C@@H](C)C(=O)N[C@H](C(=O)N[C@@H](CC(C)C)C(=O)N1CCC[C@H]1C(=O)N[C@@H](CCCNC(=N)N)C(=O)N[C@H](C(=O)N[C@@H](CCC(=O)O)C(=O)N[C@H](C(=O)NCC(=O)N[C@@H](CO)C(=O)NCC(=O)N[C@@H](CO)C(=O)N1CCC[C@H]1C(N)=O)[C@@H](C)O)[C@@H](C)O)[C@@H](C)O` ({C20 diacid-γGlu-AEEA}-ASELSTAALGRLSAELHELATLPRTETGSGSP-NH2), the EC50 in [16] is 27 pM; on Calcitonin receptor [1], 18 pM; in [2], 73 pM; on Calcitonin receptor [3], 30 pM. In addition, in [4], the Time is greater than 45 h. For the same molecule, the remaining at 1 µM in series [5] was found to be 100%. In addition, the solubility at 18 h in series [6], in series [7], in series [8], in series [9], in series [10] and in series [11] was no less than 200 µM in each case. In addition, the solubility at 18 h in series [12] and in [13] was no less than 200 µM in each case. The IC50 is 85 pM at Calcitonin receptor [14] and 146 pM in series [15].

Take `CC(C)C[C@H](NC(=O)[C@H](C)NC(=O)[C@H](C)NC(=O)[C@@H](NC(=O)[C@H](CO)NC(=O)[C@H](CC(C)C)NC(=O)[C@H](CCC(=O)O)NC(=O)[C@H](CO)NC(=O)[C@H](C)NC(=O)CC[C@H](NC(=O)CCCCCCCCCCCCCCCCCCC(=O)O)C(=O)O)[C@@H](C)O)C(=O)NCC(=O)N[C@@H](CCCNC(=N)N)C(=O)N[C@@H](CC(C)C)C(=O)N[C@@H](CO)C(=O)N[C@@H](C)C(=O)N[C@@H](CCC(=O)O)C(=O)N[C@@H](CC(C)C)C(=O)N[C@@H](Cc1cnc[nH]1)C(=O)N[C@@H](CCC(=O)O)C(=O)N[C@@H](CC(C)C)C(=O)N[C@@H](C)C(=O)N[C@H](C(=O)N[C@@H](CC(C)C)C(=O)N1CCC[C@H]1C(=O)N[C@@H](CCCNC(=N)N)C(=O)N[C@H](C(=O)N[C@@H](CCC(=O)O)C(=O)N[C@H](C(=O)NCC(=O)N[C@@H](CO)C(=O)NCC(=O)N[C@@H](CO)C(=O)N[C@@H](Cc1ccc(O)cc1)C(N)=O)[C@@H](C)O)[C@@H](C)O)[C@@H](C)O` ({C20 diacid-γGlu}-ASELSTAALGRLSAELHELATLPRTETGSGSY-NH2): the EC50 is 46 pM in [16], 37 pM at Calcitonin receptor [1], 62 pM in [2] and 49 pM at Calcitonin receptor [3]. In addition, the Time in [4] is greater than 45 h. Moreover, the remaining at 1 µM in [5] was 100%. For the same molecule, the solubility at 18 h in [6], in [7], in series [8], in series [10], in [11] and in [12] was no less than 200 µM in each case. The solubility at 18 h in [13] was no less than 200 µM. The values for the IC50 (at Calcitonin receptor [14]; in series [15]) were 113 pM and 29 pM, respectively.
